Common to all, as to test: relative viability (nuclei count vs DMSO), 5 days (fraction); higher = more cells survive
Compound in the test “FG-4592 + Dasatinib”: Cc1nc(C(=O)NCC(=O)O)c(O)c2ccc(Oc3ccccc3)cc12 [FG-4592] + Cc1nc(Nc2ncc(C(=O)Nc3c(C)cccc3Cl)s2)cc(N2CCN(CCO)CC2)n1 [Dasatinib] (partner 0.075 µM)
A digest of the protocol:
(§1)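 Relative viability is defined as nuclei in treated wells over nuclei in vehicle wells. Duplicate plates were run and medians reported. Lung cancer cell lines in 1536-well plates were dosed by pin tool one day after seeding, with one drug or with a fixed anchor-drug dose plus five library-drug doses (not always all listed) in √10 steps, and nuclei were counted after 5 days.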

Compound in the test “IU1-47 + Tozasertib”: CC1=CC(=C(N1C2=CC=C(C=C2)Cl)C)C(=O)CN3CCCCC3 [IU1-47] + Cc1cc(Nc2cc(N3CCN(C)CC3)nc(Sc3ccc(NC(=O)C4CC4)cc3)n2)n[nH]1 [Tozasertib] (partner 0.1 µM)
A digest of the protocol:
as §1

Compound in the test “FG-4592 + Olaparib”: Cc1nc(C(=O)NCC(=O)O)c(O)c2ccc(Oc3ccccc3)cc12 [FG-4592] + O=C(c1cc(Cc2n[nH]c(=O)c3ccccc23)ccc1F)N1CCN(C(=O)C2CC2)CC1 [Olaparib] (partner 8 µM)
The method, boiled down:
as §1

Compound in the test “FG-4592 + Bortezomib”: Cc1nc(C(=O)NCC(=O)O)c(O)c2ccc(Oc3ccccc3)cc12 [FG-4592] + CC(C)C[C@H](NC(=O)[C@H](Cc1ccccc1)NC(=O)c1cnccn1)B(O)O [Bortezomib] (partner 0.002 µM)
The method, boiled down:
as §1

For the cell line UMC-11, the relative viability in the test with FG-4592 + Dasatinib (first compound 0.08 µM) was 0.439; with FG-4592 + Dasatinib (first compound 0.253 µM), 0.46; in the test with FG-4592 + Dasatinib (first compound 0.8 µM), 0.447; with FG-4592 + Dasatinib (first compound 2.53 µM), 0.417; in the test with FG-4592 + Dasatinib (first compound 8 µM), 0.493; with IU1-47 + Tozasertib (first compound 0.08 µM) it was 0.215. The relative viability in the test with IU1-47 + Tozasertib (first compound 0.253 µM) turned out to be 0.209; in the test with IU1-47 + Tozasertib (first compound 0.8 µM), 0.201; in the test with IU1-47 + Tozasertib (first compound 2.53 µM), 0.218; in the test with IU1-47 + Tozasertib (first compound 8 µM), 0.214; in the test with FG-4592 + Olaparib (first compound 0.08 µM) it was 0.286; with FG-4592 + Olaparib (first compound 0.253 µM) it was 0.332. Further, the relative viability was found to be 0.357 in the test with FG-4592 + Olaparib (first compound 0.8 µM); 0.341 with FG-4592 + Olaparib (first compound 2.53 µM); 0.348 with FG-4592 + Olaparib (first compound 8 µM); 0.752 with FG-4592 + Bortezomib (first compound 0.08 µM); 0.771 with FG-4592 + Bortezomib (first compound 0.253 µM); 0.633 with FG-4592 + Bortezomib (first compound 0.8 µM). The values for the relative viability in the test with FG-4592 + Bortezomib (first compound 2.53 µM) and with FG-4592 + Bortezomib (first compound 8 µM) were 0.75 and 0.692, respectively.

The record behind these values is the supplement of paper PMC10307832.
